Test results from patent US20250327028A1, “ENGINEERED PLATELETS AS TARGETED PROTEIN DEGRADERS” (Wisconsin Alumni Research Foundation, priority 2024, published 2025).

Tests used:
4T1-Luc tumors = assay: Treatment efficacy in post-surgery BALB/c mice with orthotopic 4T1-Luc breast cancer; format: in vivo; conditions: 2×10^8 platelets i.v. or free HAC 5 mg/kg i.p., every third day for 4 times
Text: Evaluation of treatment efficacy and biosafety in post-surgical 4T1 tumor-bearing mice: Post-surgery BALB/c mice with orthotopic 4T1-Luc-breast cancer were used to evaluate the tumor recurrence, metastasis, and biosafety profiles after iDePLT or eDePLT treatments. The treatment efficacy of iDePLT was also studied in the post-surgery NSG mice with orthotopic patient-derived xenografts (PDX) breast cancer.
Establishment of post-surgery models with BALB/c mice: 1×10^6 4T1-Luc cells were suspended in a PBS containing 50% Matrigel® (Corning®/354234). Female 8-week-old BALB/c mice were anesthetized and injected with 50 μL of the cell suspensions into the fourth mammary gland fat pads. After the tumor volumes reached about 100-200 mm^3, the tumor-bearing mice were anesthetized and placed under the microscope, followed by surgical resection to totally remove the visible tumor tissues. Following wound closure, the post-surgery mice were randomly assigned to different treatment groups.
Evaluation of treatment efficacy and biosafety in post-surgery BALB/c mice: As for the treatments with platelets, the platelets were freshly isolated from the healthy female BALB/c mice and suspended in PBS for intravenous (i.v.) injection after the necessary engineering. The free iHAC and eHAC were intraperitoneally (i.p.) injected after dispersing in the formulation of 10% DMSO, 40% polyethylene glycol 300 (PEG300), 5% Tween TM-80, and 45% saline. From the same day after surgery, the mice were anesthetized and i.p. injected with D-luciferin potassium salt (150 mg/kg) in 100 μL in PBS. The bioluminescence of post-surgery mice in each group was detected by Perkin Elmer IVIS every five days from the day of surgery, and intensity was analyzed by Living Image Software v.4.3.1. […] During the treatment course, the body weight of each post-surgery mouse was monitored daily. […]

HSP90 and BRD4 = assay: co-Immunoprecipitation of BRD4 with anti-HSP90 antibody in 4T1 cell lysate; format: cell-based, murine; conditions: 4T1 cells, 10 μM, 2 h
Experimental: co-Immunoprecipitation assay: 2×10^6 4T1 cells were seeded in T75 cell culture flasks and cultured for 24 h. Then, the medium in the corresponding flasks was replaced with 15 mL of blank medium with DMSO or iHAC (10 μM). Following incubation for another 2 h, the cells were washed with cold PBS twice and digested with 2 mL of trypsin. As for the iDePMP treatment, 1×10^9 iDePLTs were generated as the above engineering method and suspended in 3 mL of PBS containing thrombin (0.5 U/mL), followed by incubation at 37° C. for 0.5 h. The platelet suspensions were evenly divided and subjected to a sequentially combined centrifugation at 5000 g for 5 min and at 11,000 g for 1 min, followed by further centrifugation at 2500 g for 15 min at room temperature. The combined supernatants were supplemented to 12 mL blank medium to treat 4T1 cells in the relevant flasks. After incubation for 6 h, the cells were washed with cold PBS twice and digested with 2 mL of trypsin. The cell pellets were collected through centrifugation at 1200 rpm for 3 min and washed with cold PBS. The final pellets were directly lysed on ice with RIPA buffer containing PMSF (1 mM) and the phosphatase inhibitor cocktail for 30 min. […] The total proteins in the precleared samples were quantified through the BCA assay, and 20 μL of the precleared solution samples were saved as the input samples. […]

Q: How did the “lung metastasis (bioluminescence)” value (4T1-Luc tumors) turn out when `Cc1sc2c(c1C)C(c1ccc(Cl)cc1)=N[C@@H](CC(=O)NCc1cn(CCCC(=O)N(CC#N)S(=O)(=O)c3ccc(C(=O)NCCCn4c(Sc5cc6c(cc5I)OCO6)nc5c(N)ncnc54)cc3)nn1)c1nnc(C)n1-2` [iHAC, (S)—N-(3-(6-amino-8-((6-iodobenzo[d][1,3]dioxol-5-yl)thio)-9H-purin-9-yl)propyl)-4-(N-(4-(4-((2-(4-(4-chlorophenyl)-2,3,9-trimethyl-6H-thieno[3,2-f][1,2,4]triazolo[4,3-a][1,4]diazepin-6-yl)acetamido)methyl)-1H-1,2,3-triazol-1-yl)butanoyl)-N-(cyanomethyl)sulfamoyl)benzamide] was run?
A: started to exhibit obvious lung metastasis from day 15 after surgery

Q: What about the “tumor recurrence at the surgical site (bioluminescence)” value (4T1-Luc tumors) of the same compound?
A: showed some anti-relapse effect during the dosing time, but the mice finally showed substantially recurrent tumors on day 20

Q: And the “BRD4 co-precipitated with anti-HSP90 antibody” value (HSP90 and BRD4)?
A: could considerably enhance the interaction between BRD4 and HSP90
